Results taken from US20060142178A1, “Method of treating cancer” (priority 2002, published 2006).

How the values were obtained:
Assay type in all cases: biochemical
[1] = biological target: T1, ΔPH-Akt1 (Homo sapiens, UniProt P31749); test: Akt kinase assay, GSK3 peptide substrate, Akt1 delta PH; conditions: pleckstrin homology domain deleted Akt1, GSK3 peptide substrate
T1 construct: PCR deletion mutagenesis was done using the full length Akt1 gene in the pS2neo vector as template; biotin tag (from pS2neo vector); made in house; host or cells: Drosophila S2 cells

[2] = biological target: T2, Human Akt2 (Homo sapiens, UniProt P31751); test: Akt kinase assay, GSK3 peptide substrate, Akt2; conditions: activated full length Akt2, GSK3 peptide substrate
T2 construct: a middle T tag was added to the 5′ end of the full length Akt2 using the PCR primer; biotin tag (from pS2neo vector); made in house; host or cells: Drosophila S2 cells
Procedure: (§1) Akt and Akt pleckstrin homology domain deletions were activated (Alessi et al. Current Biology 7:261-269) in a reaction containing 10 nM PDK1 (Upstate Biotechnology, Inc.), lipid vesicles (10 μM phosphatidylinositol-3,4,5-trisphosphate—Metreya, Inc, 100 μM phosphatidylcholine and 100 μM phosphatidylserine—Avanti Polar lipids, Inc.) and activation buffer (50 mM Tris pH7.4, 1.0 mM DTT, 0.1 mM EGTA, 1.0 μM Microcystin-LR, 0.1 mM ATP, 10 mM MgCl2, 333 μg/ml BSA and 0.1 mM EDTA). The reaction was incubated at 22° C. for 4 hours. Aliquots were flash frozen in liquid nitrogen.
(§2) Activated AKT isoforms and pleckstrin homology domain deletion constructs were assayed utilizing a GSK-derived biotinylated peptide substrate. The extent of peptide phosphorylation was determined by Homogeneous Time Resolved Fluorescence […] using a lanthanide chelate (Lance)-coupled monoclonal antibody specific for the phosphopeptide in combination with a streptavidin-linked allophycocyanin (SA-APC) fluorophore which will bind to the biotin moiety on the peptide. […]
(§3) The reaction is assembled by adding 16 μL of the ATP/MgCl2 working solution to the appropriate wells of a 96-well microtiter plate. […] The stopped reactions were incubated at room temperature for at least 30 min and then read on the Discovery instrument. […]

[3] = biological target: T3, Human Akt3 (Homo sapiens, UniProt Q9Y243); test: Akt kinase assay, GSK3 peptide substrate, Akt3; conditions: activated full length Akt3, GSK3 peptide substrate
T3 construct: a middle T tag was added to the 5′ end of the full length Akt3 clone; biotin tag (from pS2neo vector); made in house; host or cells: Drosophila S2 cells
Procedure: as §1, §2, §3

[4] = biological target: T4, Human Akt1 (Homo sapiens, UniProt P31749); test: Akt kinase assay, GSK3 peptide substrate, Akt1; conditions: activated full length Akt1, GSK3 peptide substrate
T4 construct: a middle T tag was added to the 5′ end of the full length Akt1 gene; biotin tag (from pS2neo vector); made in house; host or cells: Drosophila S2 cells
Procedure: as §1, §2, §3

[5] = tested on: PKC; test: PKC assay (counter screen); conditions: Myelin basic protein substrate; read-out: Counter screens IC50 (μM) PKC
Procedure: Each PKC assay consists of the following components:
The assays were assembled in 96 deep-well assay plates. Inhibitor or vehicle (10 μl) was added to 5.0 μl of ^33P-ATP. Reactions were initiated with the addition of the PKC/Myelin Basic Protein working solution and mixing. Reactions were incubated at 30° C. for 20 min. The reactions were stopped by adding 50 μl of 100 mM EDTA and 100 mM sodium pyrophosphate and mixing. Phosphorylated Mylein Basic Protein was collected on PVDF membranes in 96 well filter plates and quantitated by scintillation counting.

[6] = biological target: T5, PKA catalytic subunit (Bos taurus, UniProt P00517); test: PKA assay (counter screen); conditions: Kemptide substrate; read-out: Counter screens IC50 (μM) PKA
T5 construct: purchased UBI (Upstate Biotechnology, Inc.) 14-114
Procedure: The reactions were stopped by adding 50 μl of 100 mM EDTA and 100 mM sodium pyrophosphate and mixing.
After the final wash, the filters were allowed to air dry.

[7] = biological target: T6, ΔPH-Akt2 (Homo sapiens, UniProt P31751); test: Akt kinase assay, GSK3 peptide substrate, Akt2 delta PH; conditions: pleckstrin homology domain deleted Akt2, GSK3 peptide substrate
T6 construct: PCR was performed using the full length Akt2 gene as template; biotin tag (from pS2neo vector); made in house; host or cells: Drosophila S2 cells
T6 sequence (P31751 with tags, fused parts or gaps): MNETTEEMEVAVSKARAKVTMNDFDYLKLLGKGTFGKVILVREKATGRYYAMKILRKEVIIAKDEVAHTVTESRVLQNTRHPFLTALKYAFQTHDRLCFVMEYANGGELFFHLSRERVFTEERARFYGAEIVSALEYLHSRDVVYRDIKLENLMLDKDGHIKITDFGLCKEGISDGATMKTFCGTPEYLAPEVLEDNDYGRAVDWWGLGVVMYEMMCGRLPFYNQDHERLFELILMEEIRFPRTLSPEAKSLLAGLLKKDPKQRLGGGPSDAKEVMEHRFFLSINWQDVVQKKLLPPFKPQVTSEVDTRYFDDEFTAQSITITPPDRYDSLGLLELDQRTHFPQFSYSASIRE

T2 sequence (P31751 whole entry): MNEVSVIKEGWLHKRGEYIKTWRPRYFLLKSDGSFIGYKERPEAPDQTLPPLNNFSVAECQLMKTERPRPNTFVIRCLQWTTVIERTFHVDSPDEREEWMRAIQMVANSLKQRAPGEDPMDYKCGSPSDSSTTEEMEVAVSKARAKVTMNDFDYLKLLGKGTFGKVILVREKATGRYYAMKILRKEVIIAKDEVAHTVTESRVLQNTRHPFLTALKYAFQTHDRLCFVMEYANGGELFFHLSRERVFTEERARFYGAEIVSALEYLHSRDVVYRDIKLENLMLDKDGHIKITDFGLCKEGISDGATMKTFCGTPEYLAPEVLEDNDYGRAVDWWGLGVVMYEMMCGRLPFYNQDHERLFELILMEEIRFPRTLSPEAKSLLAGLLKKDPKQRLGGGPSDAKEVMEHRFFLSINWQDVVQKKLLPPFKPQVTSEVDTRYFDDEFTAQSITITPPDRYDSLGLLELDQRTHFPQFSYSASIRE
T3 sequence (Q9Y243 whole entry): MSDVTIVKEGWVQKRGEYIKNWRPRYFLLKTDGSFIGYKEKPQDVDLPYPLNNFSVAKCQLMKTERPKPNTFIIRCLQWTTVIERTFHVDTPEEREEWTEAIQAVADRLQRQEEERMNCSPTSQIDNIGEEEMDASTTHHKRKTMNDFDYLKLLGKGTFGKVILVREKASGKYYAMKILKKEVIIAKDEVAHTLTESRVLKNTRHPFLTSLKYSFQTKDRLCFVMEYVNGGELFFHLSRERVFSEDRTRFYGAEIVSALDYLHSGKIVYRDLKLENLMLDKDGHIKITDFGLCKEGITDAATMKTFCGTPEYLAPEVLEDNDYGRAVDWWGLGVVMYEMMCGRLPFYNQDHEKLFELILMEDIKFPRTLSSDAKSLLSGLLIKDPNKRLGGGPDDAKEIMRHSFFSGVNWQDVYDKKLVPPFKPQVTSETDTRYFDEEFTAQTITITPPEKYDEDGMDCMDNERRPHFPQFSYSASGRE
T1 sequence (P31749 with tags, fused parts or gaps): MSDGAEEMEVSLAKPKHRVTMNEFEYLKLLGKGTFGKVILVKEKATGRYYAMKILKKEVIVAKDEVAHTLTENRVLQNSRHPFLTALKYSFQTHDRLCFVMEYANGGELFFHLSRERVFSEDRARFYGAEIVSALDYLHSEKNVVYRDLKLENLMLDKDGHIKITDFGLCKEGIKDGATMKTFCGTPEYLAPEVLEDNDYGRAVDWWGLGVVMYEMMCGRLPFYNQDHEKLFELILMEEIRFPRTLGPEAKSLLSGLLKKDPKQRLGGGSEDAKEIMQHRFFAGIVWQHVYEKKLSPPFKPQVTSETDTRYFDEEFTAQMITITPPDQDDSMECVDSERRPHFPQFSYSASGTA
T4 sequence (P31749 whole entry): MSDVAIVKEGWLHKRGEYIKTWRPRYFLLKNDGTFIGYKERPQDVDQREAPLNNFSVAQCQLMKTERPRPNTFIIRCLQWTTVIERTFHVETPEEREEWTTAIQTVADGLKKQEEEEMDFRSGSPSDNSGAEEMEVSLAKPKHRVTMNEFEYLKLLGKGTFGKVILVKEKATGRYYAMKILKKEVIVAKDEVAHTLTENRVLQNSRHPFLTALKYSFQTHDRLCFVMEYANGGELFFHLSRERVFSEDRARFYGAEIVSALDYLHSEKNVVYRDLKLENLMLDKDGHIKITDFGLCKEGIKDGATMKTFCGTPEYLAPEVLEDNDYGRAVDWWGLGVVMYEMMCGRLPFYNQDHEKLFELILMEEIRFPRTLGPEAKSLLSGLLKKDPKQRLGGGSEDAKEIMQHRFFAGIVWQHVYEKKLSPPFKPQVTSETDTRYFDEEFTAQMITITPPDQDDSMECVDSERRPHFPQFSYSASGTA

OCCOc1nn2c(-c3ccccc3)nnc2cc1-c1ccccc1 [Compound 8, 6-(2-Hydroxyethyl)oxy-3,7-diphenyl-[1,2,4]triazolo[4,3-b]pyridazine]
IC50 [1]: > 50 µM | IC50 [2]: > 50 µM | IC50 [3]: > 50 µM

COc1cc(-c2[nH]c(C3CCCN3C)nc2-c2ccncc2)ccc1Cl (stereo not shown) [Compound 19-11, 1-methyl-2-[5-(4-chloro-3-methoxyphenyl)-4-pyridin-4-yl-1H-imidazol-2-yl]-pyrrolidine]
IC50 [4]: 51.7 µM | IC50 [1]: > 50 µM | IC50 [5]: 0.65 µM | IC50 [2]: > 50 µM | IC50 [3]: 1.4 µM | IC50 [6]: 0.076 µM

CN(C)CC(C)(C)CNc1nn2c(-c3ccccc3)nnc2cc1C1CCC1 [Compound 1, N′-(7-Cyclobutyl-3-phenyl-[1,2,4]triazolo[4,3-b]pyridazin-6-yl)-2,2,N,N-tetramethyl-propane-1,3-diamine]
IC50 [7]: > 100 µM
